The record followed here is US20050250801A1, “Method of treating cancer with azaspirane compositions” (priority 2003, published 2005).

One data set deals with HUVEC. Briefly: HUVEC cell migration assay (Boyden chamber). The note with it: Homo sapiens, 5 hours incubation, read-out: IC50 Concentration, Migration. It counts as cell-based. As for the experimental part:
Migration is assessed using the 48-well Boyden chamber and 8 μm pore size collagen-coated (10 μg/ml rat tail collagen; Collaborative Laboratories) polycarbonate filters (Osmonics, Inc.). The bottom chamber wells receive 27-29 μl of Dulbecco's Modified Eagle Medium (“DMEM”) alone (baseline) or medium containing chemo-attractant (bFGF, VEGF or […] cell conditioned medium). The top chambers receive 45 μl of a HUVEC cell suspension (1×10^6 cells/ml) prepared in DMEM+1% Bovine Serum Albumin (“BSA”) with or without test compound. After 5 hours incubation at 37° C. the membrane is rinsed in Phosphate Buffer Saline (“PBS”), fixed and stained in Diff-Quick solutions. The filter is placed on a glass slide with the migrated cells facing down and cells on top are removed using a Kimwipe. The testing is performed in 4-6 replicates and five fields are counted from each well. Negative unstimulated control values are subtracted from stimulated control and drug treated values and data is plotted as mean migrated cell±Standard Deviation.

Data set [1] deals with chorioallantoic membrane (CAM). Briefly: Anti-angiogenesis CAM assay. The data set is classed as in vivo, White Leghorn eggs. The note with it: 48 hour exposure, ten eggs. The protocol: The dosing was effected by pipetting 40 μl of the indicated solution onto a 13 mm round Thermanox® coverslip and allowing it to air dry. After the material appeared dry, the coverslip was placed onto the chorioallantoic membrane (CAM) of each egg insuring contact of the dried test article with the CAM. After dosing, the eggs were returned to the incubator for approximately 48 hours. Following the 48 hour exposure period, the eggs were removed from the incubator, observed for viability, and the exposed area under the coverslip was examined for loss of vasculature.

Another data set concerns CaCo-2 cells. Nature of the data set: Induction of apoptosis, DNA fragmentation analysis, CaCo-2. It counts as cell-based, human. Conditions: 12 hours treatment. As for the experimental part:
T84, CaCo-2 and HUVEC cells, respectively, were grown in 100 mm dishes for 7-9 days, culture media for HUVEC was EGM-2 (Clonetics, BioWhitaker Co.), until they reached semi-confluency. Cell monolayers were then treated for 12 hours (CaCo-2 and T84) and 16 hours (HUVEC), respectively, at the indicated concentrations of N,N,-diethyl-8,8-dipropyl-2-azaspiro[4,5]decane-2-propanamine dimaleate (Compound 1) in culture media. Cells were collected by trypsinization and the apoptotic DNA was isolated from these cells following the instructions of the DNA fragmentation analysis kit (Boehringer Mannheim Corp., Indianapolis, Ind.). The apoptotic DNA was evaluated using 1.5% agarose gel electrophoresis followed by staining with ethidium bromide. M denotes the lane containing molecular weight markers of DNA.

As for `CCCC1(CCC)CCC2(CCN(CCCN(CC)CC)C2)CC1.O=C(O)/C=C\C(=O)O.O=C(O)/C=C\C(=O)O` [Compound 1, N,N,-diethyl-8,8-dipropyl-2-azaspiro[4,5]decane-2-propanamine dimaleate], in the data set on HUVEC, the IC50 stood at 530 nM. In addition, the “Dead Eggs” value was found to be 0 in data set [1] (Dose per egg 25 μg (0.625 mg/ml)); 0 in data set [1] (Dose per egg 50 μg (1.25 mg/ml)); 4 in data set [1] (Dose per egg 100 μg); 3 in data set [1] (Dose per egg 200 μg (5 mg/ml)); 7 in data set [1] (Dose per egg 400 μg (10 mg/ml)). Also, in the data set on CaCo-2 cells, the “DNA ladder formation (apoptosis)” value is reported as “formation of DNA laddering in a dose-dependent manner”.
